# Experimental data published in ChEMBL document CHEMBL1201862, “PubChem BioAssay data set” (2004).
# Activity calls are given as the source filed them.
# Experiments:
# [1] = molecular target: 1-phosphatidylinositol 4,5-bisphosphate phosphodiesterase gamma-1 (Homo sapiens, UniProt P19174); assay: Counterscreen for inhibitors of phospholipase C isozymes (PLC-B3): Fluorescence-based biochemical high throughput dose response assay to identify inhibitors of phospholipase C isozymes (PLC-gamma1).
# [2] = molecular target: 1-phosphatidylinositol 4,5-bisphosphate phosphodiesterase beta-3 (Homo sapiens, UniProt Q01970); assay: Fluorescence-based biochemical high throughput dose response assay to identify inhibitors of phospholipase C isozymes (PLC-B3).
# cells = conditions: HEK293
# [3] = molecular target: Metabotropic glutamate receptor 5 (Rattus norvegicus, UniProt P31424); assay: Identification of a glycine sulfonamide based non-MPEP site positive allosteric potentiator (PAM) of mGlu5 (calcium_assay).; type: functional
# Ephrin type-A receptor 4 = Ephrin type-A receptor 4 (Mus musculus, UniProt Q03137); assay: inhibitors of EphA4 binding to KYL peptide, primary screen, biochemical, colorimetric, mouse EphA4 (AID 689); type: functional
# [4] = reduction of Shn3 3'UTR firefly luciferase signal, dose response, Schnurri-3 inhibitor project, cell-based, Clone20 osteoblasts, cherry-pick, set 2 (AID 720490); type: functional;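 further: actives lower the luminescence signal as inhibitors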
# [5] = Shn3 3'UTR reporter inhibitors, dose response, cell-based, Clone20 osteoblasts, firefly luciferase, cherry-picked (AID 624132); type: functional;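 further: firefly luciferase luminescence from reporter carrying the Shn3 3'UTR in osteoblasts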
# [6] = control 3'UTR Renilla luciferase suppression, dose response, counter-screen for Shn3 inhibitor project, cell-based, Clone20-Shn3RL, cherry-picked (AID 624133); type: functional
# [7] = ADAM10 inhibitors, peptide cleavage, dose response, biochemical, QFRET (AID 743254);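 further: ADAM10 enzyme with the DM2 quenched FRET peptide as substrate; EDANS fluorescence gain as the protease cuts the substrate; inhibitor potency against ADAM10 proteolytic activity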
# Streptokinase A = molecular target: T1, Streptokinase A (Streptococcus pyogenes serotype M1, UniProt P10520); assay: S. pyogenes streptokinase expression inhibitors, potency, dose response, plasminogen activation absorbance, OD405 (AID 1914); type: functional, Streptococcus pyogenes M1 GAS;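 further: secreted streptokinase activity via plasminogen activation per viability signal from cell pellet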
# T1 sequence (P10520 whole entry): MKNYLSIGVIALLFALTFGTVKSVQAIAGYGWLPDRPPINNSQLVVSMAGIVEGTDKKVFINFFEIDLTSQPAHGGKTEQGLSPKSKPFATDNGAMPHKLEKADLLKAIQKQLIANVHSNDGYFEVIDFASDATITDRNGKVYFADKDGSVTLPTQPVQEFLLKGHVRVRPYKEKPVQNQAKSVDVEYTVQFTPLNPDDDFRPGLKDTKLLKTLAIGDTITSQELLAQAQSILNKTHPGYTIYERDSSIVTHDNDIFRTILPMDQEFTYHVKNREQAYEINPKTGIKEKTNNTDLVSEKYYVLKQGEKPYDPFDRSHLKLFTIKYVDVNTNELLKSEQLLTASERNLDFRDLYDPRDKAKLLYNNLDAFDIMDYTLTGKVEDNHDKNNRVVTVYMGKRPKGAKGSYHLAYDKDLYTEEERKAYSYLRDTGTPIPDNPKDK
# Streptococcus = assay: Group A Streptococcus viability loss, dose response, counter-screen for streptokinase expression inhibitor project, luminescence, BacTiterGlo (AID 1915); type: functional, organism-based;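 further: potency for reduction of bacterial viability or growth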
# [8] = test system: Streptococcus sp. 'group A'; assay: growth inhibition of control SK(-) GAS strain, dose response, counter-screen for streptokinase expression inhibitor project, luminescence, kanamycin, BacTiterGlo, confirmation (AID 1900); type: functional, organism-based
# [9] = molecular target: Disintegrin and metalloproteinase domain-containing protein 17 (Homo sapiens, UniProt P78536); assay: ADAM17 protease inhibitors, dose response, counter-screen for ADAM10 exosite inhibitor project, biochemical, quenched FRET substrate (AID 743253)
# [10] = Late stage counterscreen for inhibitors of Trypanosoma brucei methionyl tRNA synthetase (MetRS): Luminescence-based cell-based high throughput dose response assay to identify compounds that are cytotoxic to Jurkat human T lymphocyte cells.; type: functional
# [11] = molecular target: T2, Methionyl-tRNA synthetase, putative (Trypanosoma brucei brucei, UniProt Q38C91); type: functional, Trypanosoma brucei brucei strain 927/4 GUTat10.1
# [12] = molecular target: T2, Methionyl-tRNA synthetase, putative; type: functional, Trypanosoma brucei brucei strain 927/4 GUTat10.1; remark: listed apart in the source
# [13] = Counterscreen for inhibitors of Trypanosoma brucei methionyl tRNA synthetase (MetRS): Luminescence-based cell-based high throughput dose response assay to identify compounds that are cytotoxic to Jurkat human T lymphocyte cells.; type: functional
# T2 sequence (Q38C91 whole entry): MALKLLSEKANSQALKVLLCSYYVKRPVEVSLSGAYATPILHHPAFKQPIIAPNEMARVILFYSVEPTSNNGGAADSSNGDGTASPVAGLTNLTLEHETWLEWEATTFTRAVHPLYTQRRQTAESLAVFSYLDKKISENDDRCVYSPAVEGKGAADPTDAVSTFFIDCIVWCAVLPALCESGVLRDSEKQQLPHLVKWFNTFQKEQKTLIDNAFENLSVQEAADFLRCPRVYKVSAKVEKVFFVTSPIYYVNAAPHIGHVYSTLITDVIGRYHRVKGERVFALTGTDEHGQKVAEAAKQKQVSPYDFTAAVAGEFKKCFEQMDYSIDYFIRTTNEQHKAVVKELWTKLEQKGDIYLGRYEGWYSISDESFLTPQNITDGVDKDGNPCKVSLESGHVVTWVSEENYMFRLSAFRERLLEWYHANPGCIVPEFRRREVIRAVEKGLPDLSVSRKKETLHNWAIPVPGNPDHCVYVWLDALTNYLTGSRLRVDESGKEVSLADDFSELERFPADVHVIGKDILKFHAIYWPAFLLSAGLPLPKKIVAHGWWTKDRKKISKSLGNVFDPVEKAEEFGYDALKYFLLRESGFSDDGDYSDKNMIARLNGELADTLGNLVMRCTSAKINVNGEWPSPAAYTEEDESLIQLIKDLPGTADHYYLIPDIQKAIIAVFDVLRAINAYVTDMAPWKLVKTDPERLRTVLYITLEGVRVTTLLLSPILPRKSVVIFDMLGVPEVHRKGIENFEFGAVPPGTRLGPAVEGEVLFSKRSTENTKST
# Chain of Metabotropic glutamate receptor 5 (P31424 whole entry): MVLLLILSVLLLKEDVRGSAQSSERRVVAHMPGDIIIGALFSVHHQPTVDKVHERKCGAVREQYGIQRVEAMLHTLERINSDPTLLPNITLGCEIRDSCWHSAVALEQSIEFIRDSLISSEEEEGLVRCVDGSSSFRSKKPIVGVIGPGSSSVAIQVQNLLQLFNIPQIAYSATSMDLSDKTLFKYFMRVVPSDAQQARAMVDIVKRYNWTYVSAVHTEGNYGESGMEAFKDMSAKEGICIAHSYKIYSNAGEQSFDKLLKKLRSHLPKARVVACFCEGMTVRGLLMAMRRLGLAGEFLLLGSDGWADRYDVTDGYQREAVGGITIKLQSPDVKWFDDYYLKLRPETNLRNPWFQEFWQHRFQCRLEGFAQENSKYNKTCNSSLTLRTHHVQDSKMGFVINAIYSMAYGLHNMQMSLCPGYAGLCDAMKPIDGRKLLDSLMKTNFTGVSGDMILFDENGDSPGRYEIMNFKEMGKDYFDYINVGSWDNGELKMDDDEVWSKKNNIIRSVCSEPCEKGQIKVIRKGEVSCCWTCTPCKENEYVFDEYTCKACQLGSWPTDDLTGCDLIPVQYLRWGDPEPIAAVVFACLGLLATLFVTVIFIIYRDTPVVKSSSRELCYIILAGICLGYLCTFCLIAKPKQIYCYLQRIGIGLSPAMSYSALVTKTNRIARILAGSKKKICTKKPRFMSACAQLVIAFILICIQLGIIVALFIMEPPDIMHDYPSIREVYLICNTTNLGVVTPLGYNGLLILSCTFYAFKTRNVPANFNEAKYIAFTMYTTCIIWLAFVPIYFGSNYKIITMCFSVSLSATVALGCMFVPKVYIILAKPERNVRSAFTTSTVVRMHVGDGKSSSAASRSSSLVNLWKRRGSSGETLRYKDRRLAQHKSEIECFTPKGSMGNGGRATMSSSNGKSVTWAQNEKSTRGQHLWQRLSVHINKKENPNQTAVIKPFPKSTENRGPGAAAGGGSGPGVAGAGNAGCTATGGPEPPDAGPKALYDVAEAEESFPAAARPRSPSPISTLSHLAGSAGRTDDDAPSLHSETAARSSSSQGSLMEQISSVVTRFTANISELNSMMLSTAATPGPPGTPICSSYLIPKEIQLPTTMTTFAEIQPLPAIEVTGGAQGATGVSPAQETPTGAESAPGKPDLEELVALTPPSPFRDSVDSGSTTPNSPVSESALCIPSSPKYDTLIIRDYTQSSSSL
# Chain of 1-phosphatidylinositol 4,5-bisphosphate phosphodiesterase gamma-1 (P19174 whole entry): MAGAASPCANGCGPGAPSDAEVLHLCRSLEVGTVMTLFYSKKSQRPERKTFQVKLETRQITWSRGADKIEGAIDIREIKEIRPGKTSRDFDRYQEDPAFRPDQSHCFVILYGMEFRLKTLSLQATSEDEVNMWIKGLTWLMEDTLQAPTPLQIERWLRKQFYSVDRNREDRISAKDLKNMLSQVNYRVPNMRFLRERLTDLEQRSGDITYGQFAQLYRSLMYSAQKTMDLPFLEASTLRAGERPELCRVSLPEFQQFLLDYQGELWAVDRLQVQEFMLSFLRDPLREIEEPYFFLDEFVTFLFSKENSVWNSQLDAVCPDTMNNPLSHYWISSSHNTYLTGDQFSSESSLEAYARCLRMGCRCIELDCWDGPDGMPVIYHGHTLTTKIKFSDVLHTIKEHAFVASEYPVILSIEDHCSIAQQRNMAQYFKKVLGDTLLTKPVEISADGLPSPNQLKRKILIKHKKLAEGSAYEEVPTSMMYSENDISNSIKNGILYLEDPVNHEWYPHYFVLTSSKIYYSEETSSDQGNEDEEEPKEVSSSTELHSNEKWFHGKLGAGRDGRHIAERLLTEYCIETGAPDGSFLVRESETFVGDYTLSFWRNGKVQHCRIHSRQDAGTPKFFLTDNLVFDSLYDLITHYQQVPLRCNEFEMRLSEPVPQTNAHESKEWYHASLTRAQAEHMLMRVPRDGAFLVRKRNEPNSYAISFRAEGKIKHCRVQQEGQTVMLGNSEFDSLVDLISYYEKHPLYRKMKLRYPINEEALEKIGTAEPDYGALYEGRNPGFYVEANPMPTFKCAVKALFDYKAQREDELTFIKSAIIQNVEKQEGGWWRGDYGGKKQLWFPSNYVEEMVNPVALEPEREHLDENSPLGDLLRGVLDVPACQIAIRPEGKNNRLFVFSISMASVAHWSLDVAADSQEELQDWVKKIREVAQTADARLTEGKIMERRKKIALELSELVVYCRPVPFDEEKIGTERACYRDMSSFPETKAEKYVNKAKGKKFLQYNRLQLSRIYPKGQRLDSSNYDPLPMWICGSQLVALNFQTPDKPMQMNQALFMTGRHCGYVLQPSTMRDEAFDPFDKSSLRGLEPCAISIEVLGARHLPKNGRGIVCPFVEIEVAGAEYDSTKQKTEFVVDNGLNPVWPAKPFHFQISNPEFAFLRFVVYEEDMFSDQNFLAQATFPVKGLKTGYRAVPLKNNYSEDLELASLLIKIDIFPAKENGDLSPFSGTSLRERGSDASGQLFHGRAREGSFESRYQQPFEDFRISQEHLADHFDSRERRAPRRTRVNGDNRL
# Chain of Disintegrin and metalloproteinase domain-containing protein 17 (P78536 whole entry, the tested form may be a part): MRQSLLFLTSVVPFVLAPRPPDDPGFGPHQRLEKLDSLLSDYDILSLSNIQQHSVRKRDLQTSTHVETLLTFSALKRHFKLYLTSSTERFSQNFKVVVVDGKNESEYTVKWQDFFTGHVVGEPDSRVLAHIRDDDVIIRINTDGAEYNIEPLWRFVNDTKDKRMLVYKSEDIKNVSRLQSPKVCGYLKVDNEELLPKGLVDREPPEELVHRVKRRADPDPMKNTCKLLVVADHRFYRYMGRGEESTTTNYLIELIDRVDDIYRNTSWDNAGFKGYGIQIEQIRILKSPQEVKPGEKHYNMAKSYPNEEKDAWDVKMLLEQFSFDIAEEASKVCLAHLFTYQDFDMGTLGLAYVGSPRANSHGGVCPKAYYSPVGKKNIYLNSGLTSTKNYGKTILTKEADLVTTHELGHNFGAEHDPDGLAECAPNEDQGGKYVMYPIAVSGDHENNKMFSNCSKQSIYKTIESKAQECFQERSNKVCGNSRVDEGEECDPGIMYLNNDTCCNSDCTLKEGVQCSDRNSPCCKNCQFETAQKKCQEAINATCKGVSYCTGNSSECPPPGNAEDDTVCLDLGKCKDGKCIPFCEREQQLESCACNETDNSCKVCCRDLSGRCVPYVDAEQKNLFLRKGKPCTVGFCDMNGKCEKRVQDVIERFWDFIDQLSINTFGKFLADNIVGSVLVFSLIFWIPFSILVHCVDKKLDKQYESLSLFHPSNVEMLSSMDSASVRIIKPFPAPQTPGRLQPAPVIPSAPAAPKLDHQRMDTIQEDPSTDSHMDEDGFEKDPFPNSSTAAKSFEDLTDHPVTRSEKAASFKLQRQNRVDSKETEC
# Chain of Ephrin type-A receptor 4 (Q03137 whole entry): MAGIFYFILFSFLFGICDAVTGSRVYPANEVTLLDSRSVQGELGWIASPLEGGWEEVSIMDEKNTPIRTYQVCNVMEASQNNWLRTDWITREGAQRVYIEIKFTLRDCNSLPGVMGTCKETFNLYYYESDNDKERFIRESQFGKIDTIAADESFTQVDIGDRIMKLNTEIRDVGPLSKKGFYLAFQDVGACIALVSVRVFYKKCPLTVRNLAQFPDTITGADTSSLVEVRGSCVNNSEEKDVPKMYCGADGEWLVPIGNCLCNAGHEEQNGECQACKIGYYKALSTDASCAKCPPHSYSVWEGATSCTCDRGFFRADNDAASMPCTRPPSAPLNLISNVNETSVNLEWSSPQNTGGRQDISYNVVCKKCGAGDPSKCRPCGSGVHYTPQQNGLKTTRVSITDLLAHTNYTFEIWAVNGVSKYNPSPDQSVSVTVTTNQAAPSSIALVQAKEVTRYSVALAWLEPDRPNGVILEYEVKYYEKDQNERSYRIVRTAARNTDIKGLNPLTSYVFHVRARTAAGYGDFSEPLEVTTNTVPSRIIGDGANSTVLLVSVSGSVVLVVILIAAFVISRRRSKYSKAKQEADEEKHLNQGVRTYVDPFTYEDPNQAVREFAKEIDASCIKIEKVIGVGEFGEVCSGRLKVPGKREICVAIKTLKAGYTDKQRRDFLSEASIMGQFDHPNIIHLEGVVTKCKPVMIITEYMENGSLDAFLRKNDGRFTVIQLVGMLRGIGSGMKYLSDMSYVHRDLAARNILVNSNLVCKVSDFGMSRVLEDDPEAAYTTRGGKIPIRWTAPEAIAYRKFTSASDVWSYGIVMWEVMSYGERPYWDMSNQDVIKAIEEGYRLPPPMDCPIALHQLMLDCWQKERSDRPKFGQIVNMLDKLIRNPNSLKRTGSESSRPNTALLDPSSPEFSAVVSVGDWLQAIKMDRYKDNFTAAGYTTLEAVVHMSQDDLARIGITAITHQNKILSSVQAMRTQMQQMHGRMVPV
smiles,measurement,setting,value
O=[N+]([O-])c1ccc2[nH]cc(S(=O)(=O)N3CCN(c4cccc(Cl)c4)CC3)c2c1,IC50,[1],> 122 µM (inactive)
same,IC50,[2],> 122 µM (inactive)
COc1ccc(CCNC(=O)CSc2cn(Cc3cccc(C)c3)c3ccccc23)cc1OC,AC50,cells,> 52 µM (inactive)
CS(=O)(=O)N(CC(=O)Nc1cccc(Cl)c1)c1ccccc1Cl,EC50,[3],0.051 µM
same,IC50,Ephrin type-A receptor 4,> 100 µM (not active)
O=C(COC(=O)c1[nH]nc2ccccc12)Nc1ccc(S(=O)(=O)N2CCCC2)cc1,AC50,[4],31.8 µM (active)
same,AC50,[5],5.33 µM (active)
same,AC50,[6],36.1 µM (active)
O=C(OCc1ccc(-c2ccccc2)cc1)c1cccc(O)c1,IC50,[7],> 7.72 µM (active)
same,EC50,Streptokinase A,22.4 µM (active)
same,EC50,Streptococcus,19 µM (active)
same,EC50,[8],11.4 µM (active)
same,IC50,[9],> 69.5 µM (inactive)
O=C(Cn1cc(C(=O)C(=O)N2CCOCC2)c2ccccc21)Nc1cccc(C(F)(F)F)c1,IC50,[10],> 83.3 µM (inactive)
same,IC50,[11],0.205 µM (active)
same,IC50,[12],0.352 µM (active)
same,IC50,[13],77.5 µM (inactive)
